Experimental data published in ChEMBL document CHEMBL3797106, “Potent and Selective Agonists of Sphingosine 1-Phosphate 1 (S1P1): Discovery and SAR of a Novel Isoxazole Based Series” (J Med Chem, 2016).
Calls of active or inactive are those of the source. No cut-off for these calls is given here.

What was measured:
Plasma = assay: Ratio drug level in Lewis rat plasma at 1 mg/kg, po at 4 hrs to drug level in Lewis rat plasma at 1 mg/kg, po at 24 hrs; format: ADME, organism-based; settings: in vivo
[1] = Tmax in cynomolgus monkey at 5 mg/kg, po; format: ADME, organism-based, Macaca fascicularis; settings: in vivo
Rattus norvegicus [2] = assay: Antiarthritic activity in po dosed complete Freund's adjuvant-induced Lewis rat arthritis model assessed as inhibition of bone resorption administered as qd for 21 days started from day of immunization; format: functional, organism-based
Rattus norvegicus [3] = assay: Ratio of Cmax to Cmin in rat at 5 mg/kg, po; format: ADME, organism-based; settings: in vivo
[4] = Mean residence time in mouse at 2 mg/kg, iv; format: ADME, organism-based; settings: in vivo
[5] = target: T1, Sphingosine 1-phosphate receptor 1 (Homo sapiens, UniProt P21453); assay: Agonist activity at human S1P1 receptor expressed in CHO cell membranes after 45 mins by [35S]-GTPgammaS binding assay; format: functional
T1 sequence (P21453 whole entry): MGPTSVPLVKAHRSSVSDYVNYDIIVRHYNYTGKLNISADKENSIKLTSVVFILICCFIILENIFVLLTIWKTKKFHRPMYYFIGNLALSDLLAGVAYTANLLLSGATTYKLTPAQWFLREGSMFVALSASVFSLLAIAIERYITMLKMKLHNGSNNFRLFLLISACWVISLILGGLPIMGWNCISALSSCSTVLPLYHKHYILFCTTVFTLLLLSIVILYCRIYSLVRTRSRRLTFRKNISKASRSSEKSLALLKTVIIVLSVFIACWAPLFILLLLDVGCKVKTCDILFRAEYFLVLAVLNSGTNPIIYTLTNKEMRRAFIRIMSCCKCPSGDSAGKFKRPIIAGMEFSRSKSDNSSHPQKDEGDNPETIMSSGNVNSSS

[6] = Half life in cynomolgus monkey at 2 mg/kg, iv; format: ADME, organism-based, Macaca fascicularis; settings: in vivo
[7] = Plasma protein binding in human; format: ADME, cell-free; settings: read-out: PPB (converted)
[8] = Cmax in rat at 5 mg/kg, po; format: ADME, organism-based; parameters: dose 5 mg/kg, route oral; settings: in vivo
Mus musculus [9] = assay: AUC in mouse at 10 mg/kg, po; format: ADME, organism-based; settings: in vivo
[10] = Plasma protein binding in rat; format: ADME, cell-free; settings: read-out: PPB (converted)
[11] = Oral bioavailability in rat at 5 mg/kg; format: ADME, organism-based; settings: in vivo
Mus musculus [12] = assay: Ratio of Cmax to Cmin in mouse at 10 mg/kg, po; format: ADME, organism-based; settings: in vivo
[13] = AUC in rat at 5 mg/kg, po; format: ADME, organism-based; settings: in vivo
Canis familiaris [14] = assay: Clearance in dog at 1 mg/kg, iv relative to hepatic blood flow; format: ADME, organism-based, Canis lupus familiaris, Liver; settings: in vivo
Cytochrome P450 2C19 = Cytochrome P450 2C19 (Homo sapiens, UniProt P33261); assay: Inhibition of CYP2C19 (unknown origin); format: ADME
Cytochrome P450 2C19, sequence (P33261 whole entry): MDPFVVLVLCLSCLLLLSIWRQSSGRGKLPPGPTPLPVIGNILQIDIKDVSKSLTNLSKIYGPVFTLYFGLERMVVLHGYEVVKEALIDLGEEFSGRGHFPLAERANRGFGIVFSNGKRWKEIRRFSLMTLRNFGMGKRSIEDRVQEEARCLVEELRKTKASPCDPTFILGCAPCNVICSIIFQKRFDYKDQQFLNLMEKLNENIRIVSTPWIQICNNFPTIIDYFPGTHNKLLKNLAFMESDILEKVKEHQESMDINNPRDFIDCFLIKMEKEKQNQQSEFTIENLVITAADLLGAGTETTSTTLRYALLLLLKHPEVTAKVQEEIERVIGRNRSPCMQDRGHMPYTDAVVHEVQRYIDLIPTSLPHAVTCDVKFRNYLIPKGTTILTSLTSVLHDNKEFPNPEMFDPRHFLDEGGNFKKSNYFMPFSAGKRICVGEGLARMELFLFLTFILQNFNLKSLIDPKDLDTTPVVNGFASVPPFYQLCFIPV

[15] = Permeability across apical to basolateral side in human Caco2 cells; format: ADME, cell-based; settings: Caco-2, read-out: permeability
Homo sapiens = species: Homo sapiens; assay: Inhibition of calcium channel (unknown origin) at 10 uM by patch clamp method relative to control
Mus musculus [16] = assay: Induction of delay in disease onset in po dosed C57BL/6 mouse experimental autoimmune encephalomyelitis model of multiple sclerosis administered as qd for 24 days started from day of immunization measured 3 times per week of compound dosing; format: functional, organism-based
Mus musculus [17] = assay: Reduction in clinical score in po dosed C57BL/6 mouse experimental autoimmune encephalomyelitis model of multiple sclerosis administered as qd for 24 days started from day of immunization measured 3 times per week of compound dosing; format: functional; settings: C57BL/6, po, 576 h
Rattus norvegicus [18] = assay: Antiarthritic activity in complete Freund's adjuvant-induced Lewis rat arthritis model assessed as suppression of paw swelling at 0.03 mg/kg, po qd for 21 days started from day of immunization measured 3 times per week of compound dosing by water displacement plethysmometry; format: functional, organism-based
Rattus norvegicus [19] = assay: Antiarthritic activity in po dosed complete Freund's adjuvant-induced Lewis rat arthritis model assessed as suppression of paw swelling administered as qd for 21 days started from day of immunization measured 3 times per week of compound dosing by water displacement plethysmometry; format: functional; settings: 504 h
[20] = Plasma protein binding in monkey; format: ADME, cell-free, Macaca mulatta; settings: rhesus monkey, read-out: PPB (converted)
[21] = target: T1, Sphingosine 1-phosphate receptor 1; assay: Induction of internalization of C-terminal GFP-fused human S1P1 receptor expressed in CHO […] assessed as remaining receptor level in cell membrane at 4.6 nM preincubated for 50 mins followed by compound washout measured at 16 hrs relative to control; format: cell-based
[22] = Half life in dog at 1 mg/kg, iv; format: ADME, organism-based, Canis lupus familiaris; settings: in vivo
[23] = Tmax in mouse at 10 mg/kg, po; format: ADME, organism-based; settings: in vivo
Rattus norvegicus [24] = assay: Reduction of blood lymphocyte level in Lewis rat at 0.03 mg/kg, po measured at 24 hrs by hematology analyzer relative to vehicle-treated control; format: functional; parameters: scale not given: the % may be the effect or the level left
[25] = Volume of distribution at steady state in cynomolgus monkey at 2 mg/kg, iv; format: ADME, organism-based, Macaca fascicularis; settings: in vivo, read-out: Vdss
[26] = AUC in dog at 1 mg/kg, po; format: ADME, organism-based, Canis lupus familiaris; settings: in vivo
[27] = Mean residence time in dog at 1 mg/kg, iv; format: ADME, organism-based, Canis lupus familiaris; settings: in vivo
Mus musculus [28] = assay: Inhibition of inflammation in spinal cord of po dosed C57BL/6 mouse experimental autoimmune encephalomyelitis model of multiple sclerosis administered as qd for 24 days started from day of immunization; format: functional, organism-based
Canis familiaris [29] = assay: Ratio of Cmax to Cmin in dog at 1 mg/kg, po; format: ADME, organism-based, Canis lupus familiaris; settings: in vivo
[30] = Cmax in mouse at 10 mg/kg, po; format: ADME, organism-based; parameters: dose 10 mg/kg, route oral; settings: in vivo
[31] = Cmax in dog at 1 mg/kg, po; format: ADME, organism-based, Canis lupus familiaris; parameters: dose 1 mg/kg, route oral; settings: in vivo
[32] = Half life in rat at 2 mg/kg, iv; format: ADME, organism-based; settings: in vivo
[33] = Plasma concentration in Lewis rat at 1 mg/kg, po measured at 4 hrs; format: ADME, organism-based
Cytochrome P450 1A2 = target: T2, Cytochrome P450 1A2 (Homo sapiens, UniProt P05177); assay: Inhibition of CYP1A2 (unknown origin); format: ADME
T2 sequence (P05177 whole entry): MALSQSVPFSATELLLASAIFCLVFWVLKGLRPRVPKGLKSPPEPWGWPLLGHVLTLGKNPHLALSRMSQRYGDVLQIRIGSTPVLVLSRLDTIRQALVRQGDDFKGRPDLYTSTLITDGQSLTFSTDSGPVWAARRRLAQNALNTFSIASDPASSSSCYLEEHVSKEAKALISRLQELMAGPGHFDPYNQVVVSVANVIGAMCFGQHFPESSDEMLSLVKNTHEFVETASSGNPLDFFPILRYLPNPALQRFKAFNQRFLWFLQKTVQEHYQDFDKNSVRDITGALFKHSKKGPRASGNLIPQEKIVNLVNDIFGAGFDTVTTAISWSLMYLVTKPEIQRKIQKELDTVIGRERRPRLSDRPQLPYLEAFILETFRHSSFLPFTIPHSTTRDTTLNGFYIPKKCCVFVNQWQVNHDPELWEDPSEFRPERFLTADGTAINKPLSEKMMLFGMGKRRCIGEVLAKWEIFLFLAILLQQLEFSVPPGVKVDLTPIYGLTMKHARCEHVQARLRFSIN

Mus musculus [34] = assay: Reduction in overall disease severity in po dosed C57BL/6 mouse experimental autoimmune encephalomyelitis model of multiple sclerosis administered as qd for 24 days started from day of immunization measured 3 times per week of compound dosing; format: functional, organism-based
Mus musculus [35] = assay: Inhibition of demyelination in spinal cord of po dosed C57BL/6 mouse experimental autoimmune encephalomyelitis model of multiple sclerosis administered as qd for 24 days started from day of immunization; format: functional, organism-based

O=C(O)C1CN(Cc2ccc(-c3noc(-c4onc(-c5ccccc5)c4C(F)(F)F)n3)cc2)C1
Ratio (Plasma): 3
Tmax [1]: 1 h
inhibition (Rattus norvegicus [2]): Dose-dependent effect
Ratio (Rattus norvegicus [3]): 6
MRT [4]: 14 h
EC50 [5]: 0.00047 µM
half-life [6]: 3 h
fraction unbound [7]: 0.003
Cmax [8]: 3900 nM
AUC (Mus musculus [9]): 250 µM·h
fraction unbound [10]: 0.006
bioavailability [11]: 52%
Ratio (Mus musculus [12]): 2
AUC [13]: 44 µM·h
CL (Canis familiaris [14]): 5.2%
IC50 (Cytochrome P450 2C19): > 40 µM
Papp A→B [15]: 10.4 ×10⁻⁶ cm/s
inhibition (Homo sapiens): 12%
Activity (Mus musculus [16]): Dose-dependent effect
ED50 (Mus musculus [17]): 0.02 mg/kg
Activity (Rattus norvegicus [18]): inactive
ED50 (Rattus norvegicus [19]): 0.05 mg/kg
fraction unbound [20]: 0.007
Activity [21]: 40%
half-life [22]: 7.4 h
Tmax [23]: 3 h
Activity (Rattus norvegicus [24]): 45%
Vd [25]: 0.6 L/kg
AUC [26]: 11 µM·h
MRT [27]: 8.9 h
inhibition (Mus musculus [28]): Dose-dependent effect
Ratio (Canis familiaris [29]): 9
Cmax [30]: 31000 nM
Cmax [31]: 1300 nM
half-life [32]: 10 h
concentration at 4 h [33]: 2100 nM
IC50 (Cytochrome P450 1A2): > 40 µM
Activity (Mus musculus [34]): Dose-dependent effect
inhibition (Mus musculus [35]): Dose-dependent effect
